Laboratory results as given in PubChem BioAssay AID328 (DTP/NCI, 2004).
Values joined by “and” are separate entries in the source; they are usually repeats but may differ in a detail not shown here. Equal values may be shown once. Toxic doses and inconclusive results are not listed. Rule for the calls: active = survival T/C of 150% or more; inactive = T/C below 125% in these data.

Tested on: BDF1 mice, P388 leukemia ip, median survival T/C
Assay: NCI In Vivo Anticancer Drug Screen. Data for tumor model P388 Leukemia (intraperitoneal) in B6D2F1 (BDF1) mice
Details: endpoint: median survival time, higher = longer survival
How it was run: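 Read-out is survival of treated animals expressed relative to the vehicle group, as a T/C ratio.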

[1] = dose: 50.0 mg/kg/injection, schedule: Q01DX009 (ip), vehicle: saline with Tween-80
[2] = dose: 100.0 mg/kg/injection, schedule: Q01DX009 (ip), vehicle: saline with Tween-80
[3] = dose: 200.0 mg/kg/injection, schedule: Q01DX009 (ip), vehicle: saline with Tween-80
[4] = dose: 100.0 mg/kg/injection, schedule: Q04DX003 (ip), vehicle: saline with Tween-80
[5] = dose: 200.0 mg/kg/injection, schedule: Q04DX003 (ip), vehicle: saline with Tween-80
[6] = dose: 400.0 mg/kg/injection, schedule: Q04DX003 (ip), vehicle: saline with Tween-80
[7] = dose: 25.0 mg/kg/injection, schedule: Q01DX009 (ip), vehicle: saline with Tween-80
[8] = dose: 100.0 mg/kg/injection, schedule: Q04DX003 (ip), vehicle: Klucel (hydroxypropylcellulose) (HPC)
[9] = dose: 200.0 mg/kg/injection, schedule: Q04DX003 (ip), vehicle: Klucel (hydroxypropylcellulose) (HPC)
[10] = dose: 400.0 mg/kg/injection, schedule: Q01DX009 (ip), vehicle: saline with Tween-80
[11] = dose: 50.0 mg/kg/injection, schedule: Q01DX009 (ip), vehicle: saline

Measured: T/C

COc1ccc(C(C)=O)cc1CO/N=C1\CSCc2ccccc21
inactive: [1] 101 % of control | [2] 119 % of control | [3] 108 % of control

CS(=O)(=O)OCCC(=O)N1CCN(C(=O)CCOS(C)(=O)=O)CC1
active: dose: 11.2 mg/kg/injection, schedule: Q01DX010 (ip), vehicle: saline 150 % of control | dose: 22.5 mg/kg/injection, schedule: Q01DX010 (ip), vehicle: saline 163 % of control | dose: 45.0 mg/kg/injection, schedule: Q01DX010 (ip), vehicle: saline 150 % of control | dose: 90.0 mg/kg/injection, schedule: Q01DX010 (ip), vehicle: saline 250 % of control

Cc1ccc(NS(=O)(=O)c2ccc([N+](=O)[O-])cc2)c(C)c1
inactive: [4] 100 % of control | [5] 104 % of control | [6] 104 % of control

Cc1nnc2n1N=C(c1ccc(O)c(O)c1O)CS2
inactive: [1] 94 % of control | [2] 93 % of control | [3] 107 % of control

Cc1csc(NC(=O)Nc2ccc(F)cc2[N+](=O)[O-])n1
inactive: dose: 12.5 mg/kg/injection, schedule: Q01DX009 (ip), vehicle: saline with Tween-80 110 % of control | [7] 88 % of control | [1] 120 % of control

CC(C)CCNc1ncnc2c1cnn2C
inactive: [7] 100 % of control | [1] 100 % of control | [2] 109 % of control

CC(=O)Nc1cc(N(CCOS(C)(=O)=O)CCOS(C)(=O)=O)ccc1N=O
active: dose: 0.7 mg/kg/injection, schedule: Q04DX003 (ip), vehicle: saline with Tween-80 179 % of control | dose: 1.1 mg/kg/injection, schedule: Q04DX003 (ip), vehicle: saline with Tween-80 212 % of control | dose: 1.6 mg/kg/injection, schedule: Q04DX003 (ip), vehicle: saline with Tween-80 208 % of control | dose: 1.65 mg/kg/injection, schedule: Q04DX003 (ip), vehicle: saline with Tween-80 150 % of control and 191 % of control | dose: 2.5 mg/kg/injection, schedule: Q04DX003 (ip), vehicle: saline with Tween-80 175 % of control
inactive: dose: 3.75 mg/kg/injection, schedule: Q04DX003 (ip), vehicle: saline with Tween-80 104 % of control

O=[N+]([O-])c1ccc(C(Br)C(Br)c2ccccc2Cl)cc1 (stereo unspecified)
inactive: [8] 100 % of control | [9] 100 % of control | dose: 400.0 mg/kg/injection, schedule: Q04DX003 (ip), vehicle: Klucel (hydroxypropylcellulose) (HPC) 100 % of control

O=C1c2ccccc2-c2c(Br)c3ccccc3c(=O)n21
inactive: [1] 105 % of control | [2] 105 % of control | [3] 117 % of control | [10] 101 % of control

CCOC(=O)N1N(C(=O)c2ccccc2)C(=O)CC1(C)C
inactive: dose: 200.0 mg/kg/injection, schedule: Q01DX001 (ip), vehicle: other 100 % of control | dose: 400.0 mg/kg/injection, schedule: Q01DX001 (ip), vehicle: other 109 % of control

NC(=O)C1=C(O)C(=O)NC1=O
inactive: dose: 50.0 mg/kg/injection, schedule: Q04DX003 (ip), vehicle: Klucel (hydroxypropylcellulose) (HPC) 100 % of control | [8] 109 % of control | [9] 95 % of control

CN(C)CCCc1c2ccccc2nc2ccc(Cl)cc12
inactive: dose: 1.56 mg/kg/injection, schedule: Q01DX009 (ip), vehicle: saline 109 % of control | dose: 3.12 mg/kg/injection, schedule: Q01DX009 (ip), vehicle: saline 90 % of control | dose: 6.0 mg/kg/injection, schedule: Q04DX003 (ip), vehicle: saline 104 % of control | dose: 6.25 mg/kg/injection, schedule: Q01DX009 (ip), vehicle: saline 100 % of control and 109 % of control | dose: 11.0 mg/kg/injection, schedule: Q01DX009 (ip), vehicle: saline 109 % of control | dose: 12.0 mg/kg/injection, schedule: Q04DX003 (ip), vehicle: saline 109 % of control | dose: 12.5 mg/kg/injection, schedule: Q01DX009 (ip), vehicle: saline 100 % of control | dose: 16.0 mg/kg/injection, schedule: Q01DX009 (ip), vehicle: saline 100 % of control | dose: 25.0 mg/kg/injection, schedule: Q04DX003 (ip), vehicle: saline 109 % of control | dose: 37.0 mg/kg/injection, schedule: Q01DX009 (ip), vehicle: saline 118 % of control | [11] 109 % of control

COc1ccc(/C=C(\C)[N+](=O)[O-])cc1OC
inactive: dose: 3.13 mg/kg/injection, schedule: Q01DX009 (ip), vehicle: other 116 % of control | dose: 6.25 mg/kg/injection, schedule: Q01DX009 (ip), vehicle: other 116 % of control | dose: 12.5 mg/kg/injection, schedule: Q01DX009 (ip), vehicle: other 110 % of control | dose: 25.0 mg/kg/injection, schedule: Q01DX009 (ip), vehicle: other 118 % of control

COC(=O)C(CSCSC)NC(=O)NC1CCCCC1 (stereo unspecified)
inactive: [4] 95 % of control | [5] 104 % of control | [6] 95 % of control

CCOC(=O)CCC[P+](c1ccccc1)(c1ccccc1)c1ccccc1
inactive: dose: 5.0 mg/kg/injection, schedule: Q01DX009 (ip), vehicle: saline with Tween-80 101 % of control | dose: 10.0 mg/kg/injection, schedule: Q01DX009 (ip), vehicle: saline with Tween-80 100 % of control | dose: 13.2 mg/kg/injection, schedule: Q01DX009 (ip), vehicle: saline with Tween-80 118 % of control | dose: 20.0 mg/kg/injection, schedule: Q01DX009 (ip), vehicle: saline with Tween-80 101 % of control and 122 % of control | dose: 30.0 mg/kg/injection, schedule: Q01DX009 (ip), vehicle: saline with Tween-80 118 % of control | [1] 113 % of control | [2] 118 % of control | [4] 110 % of control | dose: 160.0 mg/kg/injection, schedule: Q01DX009 (ip), vehicle: saline with Tween-80 121 % of control | [5] 115 % of control
active: dose: 75.0 mg/kg/injection, schedule: Q01DX009 (ip), vehicle: saline with Tween-80 152 % of control

CC1CCCN2C(=O)CN(N3CCOCC3)CC(=O)N12 (stereo unspecified)
inactive: dose: 100.0 mg/kg/injection, schedule: Q04DX002 (ip), vehicle: saline with Tween-80 121 % of control

O=C(O)c1cc(-c2cccc3ccccc23)nc2cc3ccccc3cc12
inactive: [2] 99 % of control | [3] 108 % of control

CC(C)CCCC(C)C1CCC2C3CC=C4CC(S[As](C)C)CCC4(C)C3CCC12C (stereo unspecified)
inactive: [1] 98 % of control | [2] 95 % of control | [3] 98 % of control

COc1ccc2nonc2c1
inactive: [7] 102 % of control | [1] 93 % of control | [2] 90 % of control | [3] 106 % of control

Cc1nc(N)c(=O)[nH]c1C
inactive: [2] 95 % of control | [4] 108 % of control | [3] 90 % of control | [5] 95 % of control | [10] 90 % of control | [6] 91 % of control

CCCCCCCCCC(=O)NC(CN1CCOCC1)C(=O)c1ccccc1 (stereo unspecified)
inactive: dose: 12.5 mg/kg/injection, schedule: Q04DX003 (ip), vehicle: saline with Tween-80 95 % of control | dose: 25.0 mg/kg/injection, schedule: Q04DX003 (ip), vehicle: saline with Tween-80 98 % of control | dose: 50.0 mg/kg/injection, schedule: Q04DX003 (ip), vehicle: saline with Tween-80 100 % of control

N=C(N)Sc1cc(O)ccc1O
inactive: [11] 109 % of control | dose: 65.0 mg/kg/injection, schedule: Q01DX009 (ip), vehicle: saline 115 % of control | dose: 100.0 mg/kg/injection, schedule: Q01DX009 (ip), vehicle: saline 115 % of control

COC(CBr)OC
inactive: dose: 10.0 mg/kg/injection, schedule: Q01DX009 (ip), vehicle: saline 102 % of control | dose: 20.0 mg/kg/injection, schedule: Q01DX009 (ip), vehicle: saline 98 % of control | dose: 40.0 mg/kg/injection, schedule: Q01DX009 (ip), vehicle: saline 98 % of control

Cc1oc(-c2ccccc2)nc1C(=O)Cl
inactive: dose: 100.0 mg/kg/injection, schedule: Q01DX001 (ip), vehicle: saline with Tween-80 120 % of control | dose: 200.0 mg/kg/injection, schedule: Q01DX001 (ip), vehicle: saline with Tween-80 113 % of control | dose: 400.0 mg/kg/injection, schedule: Q01DX001 (ip), vehicle: saline with Tween-80 103 % of control

COc1ccc(CCNC(=O)/C=C\C(=O)O)cc1OC
inactive: [2] 95 % of control | [3] 95 % of control | [10] 100 % of control

O=[N+]([O-])c1ccc(Sc2cccs2)c([N+](=O)[O-])c1
inactive: [2] 100 % of control | [4] 104 % of control | [3] 95 % of control | [5] 95 % of control | [10] 108 % of control | [6] 100 % of control

O=C(O)CC(O)(CC(=O)O)C(=O)O
inactive: dose: 50.0 mg/kg/injection, schedule: Q02DX005 (ip), vehicle: water 123 % of control | dose: 100.0 mg/kg/injection, schedule: Q02DX005 (ip), vehicle: water 114 % of control | dose: 400.0 mg/kg/injection, schedule: Q02DX005 (ip), vehicle: water 94 % of control
